“Also recorded” adds a separate entry of the source.
What was measured:
[1] = In vivo PK, plasma and brain levels; settings: male, C57BL/6, mouse
Excerpt: A plasma calibration curve was generated. […] Subcutaneous compound administration was accomplished by […]. Per oral administration was accomplished by gastric gavage. Intravenous administration was accomplished via jugular catheter. […] A brain calibration curve was generated.

[2] = tested on: Abeta oligomer binding to neurons; test: Abeta 1-42 oligomer binding assay in primary neurons; type: cell-based, rat
Method: (§1) In this assay, Abeta oligomers were brought in contact with mature primary neurons in culture and their binding was determined by immunohistochemistry (anti-Abeta antibody) and quantified by image processing. The amount of Abeta in neuronal dendrites is assessed by counting the number of labeled puncta on the neuritis. […] This labeling is associated with synapses, co-localizing with the post-synaptic scaffold protein PSD-95 (Lacor et al., '04). […] The number of synapses can also be quantified in this assay by immunofluorochemistry. Similar procedures for binding assays can be found in the literature. […] Review.
(§2) Primary hippocampal neuronal culture was established as in the membrane trafficking assay above. […] Pretreatment with compounds to be tested lasted for 1 hr and addition of Abeta oligomers or no oligomer (vehicle alone) in a final concentration of 70 ul was followed by incubation for an additional 23 hrs.
(§3) The plates were then washed 3× with PBS for 5 min each. The plates were blocked at RT for 1 hr in 5% goat serum and 0.5% Triton X-100 in PBS. […] Primary antibodies were incubated overnight at 4° C. The plates were then washed 3× with PBS for 5 min each. […] Secondary antibodies were incubated at RT for 1 hr. The plates were washed once with PBS. DAPI (4′,6-diamidino-2-phenylindole, Invitrogen) was then applied at 0.03 ug/ul and incubated at RT for 5 min, then washed with PBS.
(§4) Images were captured and analyzed with the Cellomics VTI automated microscope platform, using the Neuronal Profiling algorithm. For statistical analysis, a Tukey-Kramer pair-wise comparison with unequal variance was used.

[3] = tested on: neurons and glia in culture; test: In vitro neuronal and glial toxicity, acute or chronic dosing; type: cell-based; settings: up to 50 μM, three days
[4] = tested on: hAPP (Swedish/London) transgenic mice; settings: 0.5 mg/kg/day subcutaneous minipump, one month, 8 month old female mice
Method: In this study, rather than preventing deficits from occurring, deficits that were already established were treated. These studies were performed pursuant to a service contract by scientists who were blind to the experimental conditions. The compound was infused at 0.5 and 0.1 mg/kg/day for one month in 8 month old female mice via subcutaneous minipump and cognitive performance was tested in the Morris water maze, a test of hippocampal-based spatial learning and memory.
The swim speed was analyzed as part of the Morris measurements to determine if there were any motor or motivational deficits. Our vehicle is a 5% DMSO/5% Solutol, 90% saline mixture. The transgenic animals treated with a low dose (0.1 mg/kg/day) and a high dose (0.5 mg/kg/day) of compound. The average of three daily trials on each of four consecutive days were determined.
Escape latency measurements from the Morris water test were taken.
During the final four days of treatment, mice were tested to find the hidden platform in three trials/day. A computerized tracking system automatically quantified escape latency, or swim length.

[5] = target: T1, sigma 2 (agonist radioligand) (Rattus norvegicus, UniProt Q5U3Y7); test: Receptor binding assay, displacement of known radioligand; settings: read-out: % Inhibition of Control
T1 sequence (Q5U3Y7 1-176): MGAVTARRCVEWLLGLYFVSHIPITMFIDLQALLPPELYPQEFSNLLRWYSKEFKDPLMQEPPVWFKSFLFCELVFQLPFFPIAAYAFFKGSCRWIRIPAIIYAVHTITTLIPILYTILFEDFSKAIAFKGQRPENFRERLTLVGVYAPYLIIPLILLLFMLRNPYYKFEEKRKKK

[6] = tested on: Abeta oligomer-induced synapse loss; test: Synapse loss assay (synaptophysin puncta) in primary neurons; type: cell-based, rat
Method: as §1, §2, §3, §4

[7] = tested on: neuronal cultures; test: Nuclear intensity / morphology in neuronal cultures; settings: 24 hours
[8] = tested on: CYP2D6, CYP3A4, CYP2C19; test: in vitro
[9] = tested on: sigma-2 receptor; test: Autoradiography, displacement of [3H]-RHM-1 in brain sections; type: binding; settings: 1 μM; monkey frontal cortex, monkey hippocampus, human temporal cortex
Method: Brain sections in 20 μM thickness from rats, rhesus monkeys and postmortem human brains were cut using with a Microm cryotome and mounted on superfrost plus glass slides (Fisher Scientific, Pittsburgh, Pa.)., and serial sections through the brain regions of cerebral cortex and hippocampus were used in this study.
Slides were dried and made conductive by coating with a copper foil tape on the free side and then placed in the gas chamber [mixture of argon and triethylamine (Sigma-Aldrich, USA)] of a gaseous detector, the Beta Imager 2000Z Digital Beta Imaging System (Biospace, France). […] [^3H]Microscale (American Radiolabeled Chemicals, Inc., St. Louis, Mo.) was counted at the same time as a reference for total radioactivity quantitative analysis, i.e., to convert the cpm/mm2 to nCi/mg tissue. Quantitative analysis was performed with the program Beta-Image Plus (BioSpace, France) for the anatomical regions of interest (ROI), i.e., to obtain the quantitative radioactivity uptake (cpm/nlln2) in the regions of cortex and hippocampus. The binding density was normalized to fmol/mg tissue based on the specific activities of the corresponding radioligands and calibration curve from the standard [^3H]Microscale.

[10] = tested on: Abeta oligomer-induced memory deficits in wt C57BL/6 mice; test: Contextual fear conditioning after intrahippocampal Abeta oligomer injection; type: in vivo, mouse
Method: Abeta oligomers (single 200 nanoMolar intrahippocampal injection) produced significant deficits in memory formation in 3-4 month old male wt C57BL/6 mice (N=16) compared to vehicle (N=18).
Several pharmaceutical companies use this same model in their discovery efforts. Contextual fear conditioning is an accepted model of associative memory formation which correlates to human cognitive function and specifically the creation of new (Delgado '06). Abeta oligomers are injected into the hippocampus of wild-type animals immediately before conditioning training and memory is assessed via freezing behavior after 24 hours. Details are provided in Example 9. […] This model system was chosen because intrahippocampal administration of oligomers allows rapid comparative assessment of compound activity and off-target toxicity. The results are shown graphically in FIG. 4.
Compound II was tested in an animal model of a memory-dependent behavioral task known as fear conditioning. The study protocol was designed based on published protocols (See e.g. Puzzo D, Privitera L, Leznik E, Fà M, Staniszewski A, Palmeri A, Arancio O. Picomolar amyloid-beta positively modulates synaptic plasticity and memory in hippocampus. J. Neurosci. 2008 Dec. 31; 28(53):14537-45.). The formation of contextual memories is dependent upon the integrity of medial temporal lobe structures such as the hippocampus. […]

[11] = tested on: caspase-3 activity in SKOV-3 human ovarian cancer cells; test: Caspase-3 activity assay in tumor cells; type: cell-based

SMILES: COc1cc(CCC(C)NCc2ccc(C(F)(F)F)cc2)ccc1O (stereo not shown) [Compound II]
- Brain concentration as multiple of the efficacious brain dose in vivo ([1]; iv, 10 mg/kg, 180 min): 57 ×
- Amount in the brain as multiple of the efficacious dose ([1]; po, 3 h): ~40 ×
- Abeta binding ([2]; Compound II 15 uM): reduced to essentially control levels
- Reduction of Abeta binding intensity (Abeta labeled puncta) ([2]; FIG. 3D): 18%
- Partial block of binding of the Abeta oligomer ligand to neurons ([2]; imaging processing algorithm): about 25%
- Toxicity (neuron number, glial number, nuclear size, nuclear morphology, neurite length, cytoskeletal morphology) [3]: no toxicity
- Cognitive performance, escape latency [4]: capable of improving cognitive performance
- inhibition at 10 µM [5]: 89%
- Share of Abeta oligomer-induced synapse loss eliminated ([6]; 5 μM of compound): 100%
- Block synapse loss ([6]; Table 10B): 100%
- Synapse number when dosed without Abeta oligomers ([6]; compound in vehicle alone): No effect
- Abeta oligomer-induced synapse loss ([6]; in words): completely eliminated this synaptic regression
- Nuclear morphology / nuclear intensity compared to vehicle [7]: did not decrease nuclear intensity
- inhibition at 10 µM [8]: 46 to 73%
- Displacement of 18.4 nM [3H]-RHM-1 [9]: partially displace
- Memory performance when dosed alone ([10]; no Abeta oligomer): no effect of compounds alone
- Abeta oligomer-induced memory deficits (freezing behavior 24 hours post-training) ([10]; single intrahippocampal injection one hour prior to oligomers (2 microMolar, b68; 2 pmol dose)): completely blocked oligomer-mediated memory deficits; also recorded: eliminated memory deficits
- Block of caspase-3 activation caused by sigma-2 receptor agonist SV-119 [11]: do not block caspase-3 activation
- Induction of caspase-3 activity [11]: did not induce caspase-3 activity
